# Assay results as given in patent US20240408064A1, “RAS INHIBITORS, COMPOSITIONS AND METHODS OF USE THEREOF” (GENETOLEAD INC., priority 2021, published 2024).
# Entries after “also recorded” stand apart in the source; their conditions may differ.
# Assays:
# [1] = target: T1, HRas^G12V (Homo sapiens (Human), UniProt P01112, G12V); test: Overall binding/activity in the various assays (NMR consensus binding)
# How it was run: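 Fragments (240 µM each, pooled) screened against 50 µM HRas^G12V in 25 mM sodium phosphate pH 7.4, 150 mM NaCl, 5 mM MgCl2, 1 mM TCEP-d16 by 1H-decoupled 1D 19F NMR. Hits confirmed by ligand- and protein-observed 1D 1H, STD and T2-CPMG (aggregation check); consensus binding ranked, with 15N HSQC for sites and Kd.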
# [2] = target: T1, HRas^G12V; test: 19F T2-CPMG NMR score; type: binding
# How it was run: (§1)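 Fragments were pooled at 240 μM each with 50 μM HRas G12V in 25 mM sodium phosphate pH 7.4, 150 mM NaCl, 5 mM MgCl2, 1 mM TCEP-d16, 10% D2O, and screened by 1H-decoupled 1D 19F NMR at 600 MHz (64 scans, 5 s relaxation delay). T2-CPMG data were collected with 1 ms echoes and eight delays from 1 to 800 ms.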
# [3] = target: T1, HRas^G12V; test: 19F DLB (ligand-observed 19F NMR) score; type: binding; parameters: scale not given here
# How it was run: as §1
compound,measurement,setting,value
CCOC(=O)[C@H]1CN(C(=O)Cc2c[nH]c3cc(F)ccc23)CCO1 [Compound 10169],Binding to HRas^G12V (in words),[1],low or no binding
same,19F T2-CPMG Score,[2],7.14
same,19F DLB Score,[3],1.6
"O=C(Cc1c[nH]c2cc(F)ccc12)N1CCN(C(=O)C2CCCO2)CC1 (stereo not drawn) [Compound 10170, 2-(6-fluoro-1H-indol-3-yl)-1-(4-(tetrahydrofuran-2-carbonyl)piperazin-1-yl)ethan-1-one]",Binding to HRas^G12V (in words),[1],low or no binding
same,19F T2-CPMG Score,[2],6.11
same,19F DLB Score,[3],1.52
CCOC(=O)C[C@@H]1CN(C(=O)Cc2c[nH]c3cc(F)ccc23)CCO1 [Compound 10171],Binding to HRas^G12V (in words),[1],low or no binding
same,19F T2-CPMG Score,[2],7.62
same,19F DLB Score,[3],1.19
"CC1CN(C(=O)Cc2cc(F)cc3[nH]ccc23)C1 [Compound 10172, 2-(6-fluoro-1H-indol-4-yl)-1-(3-methylazetidin-1-yl) ethan-1-one]",Binding to HRas^G12V (in words),[1],low or no binding
same,19F T2-CPMG Score,[2],0.11
same,19F DLB Score,[3],0.93
CN1CCN(C(=O)Cc2c[nH]c3cc(F)ccc23)C[C@@H]1C(=O)O [Compound 10173],Binding to HRas^G12V (in words),[1],low or no binding
same,19F T2-CPMG Score,[2],3.79
same,19F DLB Score,[3],1.33
"CC1CN(C(=O)Cc2c[nH]c3cc(F)cnc23)C1 [Compound 10174, 2-(6-fluoro-1H-pyrrolo[3,2-b]pyridin-3-yl)-1-(3-methylazetidin-1-yl) ethan-1-one]",Binding to HRas^G12V (in words),[1],low or no binding
same,19F T2-CPMG Score,[2],2.32
same,19F DLB Score,[3],1.14
O=C(O)C[C@@H]1CN(C(=O)Cc2c[nH]c3cc(F)ccc23)CCO1 [Compound 10175],Binding to HRas^G12V (in words),[1],low or no binding
same,19F T2-CPMG Score,[2],2.15
same,19F DLB Score,[3],1.19
"CC1CN(C(=O)Cc2cc3cc[nH]c3cc2F)C1 [Compound 10176, 2-(6-fluoro-1H-indol-5-yl)-1-(3-methylazetidin-1-yl) ethan-1-one]",Binding to HRas^G12V (in words),[1],low or no binding
same,19F T2-CPMG Score,[2],0.19
same,19F DLB Score,[3],1.01
"CCOC(=O)C[C@H]1CN(C(=O)Cc2c[nH]c3cc(F)ccc23)CCO1 [Compound 10177, Ethyl (S)-2-(4-(2-(6-fluoro-1H-indol-3-yl)acetyl)morpholin-2-yl)acetate]",Binding to HRas^G12V (in words),[1],low or no binding
same,19F T2-CPMG Score,[2],7.14
same,19F DLB Score,[3],1.12
"O=C(O)C[C@H]1CN(C(=O)Cc2c[nH]c3cc(F)ccc23)CCO1 [Compound 10178, (S)-2-(4-(2-(6-fluoro-1H-indol-3-yl)acetyl)morpholin-2-yl)acetic acid]",Binding to HRas^G12V (in words),[1],low or no binding
same,19F T2-CPMG Score,[2],2.74
same,19F DLB Score,[3],1.11
COC(=O)Cc1c[nH]c2cc(F)ccc12 [Compound 11001],Binding to HRas^G12V (in words),[1],low or no binding
same,19F T2-CPMG Score,[2],6.77
same,19F DLB Score,[3],1.76
O=C1CC(c2c[nH]c3cc(F)ccc23)C(=O)N1 (stereo not drawn) [Compound 11006],Activity ranking on HRas^G12V (in words),[1],More active; also recorded: Most active
same,19F T2-CPMG Score,[2],24.24
same,19F DLB Score,[3],3.43
Fc1ccc2c(C3CCNC3)c[nH]c2c1 (stereo not drawn) [Compound 11007],Binding to HRas^G12V (in words),[1],low or no binding
same,19F T2-CPMG Score,[2],6.67
same,19F DLB Score,[3],1.76
CN(C)CC(=O)Nc1ccc(NC(=O)Cc2c[nH]c3cc(F)ccc23)cc1 [Compound 11008],Activity ranking on HRas^G12V (in words),[1],More active; also recorded: Most active
same,19F T2-CPMG Score,[2],38.4
same,19F DLB Score,[3],6.41
Fc1ccc2c(C3=CCNCC3)c[nH]c2c1 [Compound 11011],Binding to HRas^G12V (in words),[1],low or no binding
same,19F T2-CPMG Score,[2],5.22
same,19F DLB Score,[3],1.52
CC(C)(C)OC(=O)n1cc(CC#N)c2ccc(F)cc21 [Compound 11013],Binding to HRas^G12V (in words),[1],low or no binding
same,19F T2-CPMG Score,[2],1.74
same,19F DLB Score,[3],0.4
CN(C)CC(=O)Nc1ccccc1NC(=O)Cc1c[nH]c2cc(F)ccc12 [Compound 11014],Binding to HRas^G12V (in words),[1],low or no binding
same,19F T2-CPMG Score,[2],3.32
same,19F DLB Score,[3],1.44
CCOC(=O)C(C#N)c1c[nH]c2cc(F)ccc12 (stereo not drawn) [Compound 11016],Binding to HRas^G12V (in words),[1],low or no binding
same,19F T2-CPMG Score,[2],5.57
same,19F DLB Score,[3],1.74
O=C(c1ccccc1)N1CCC(c2c[nH]c3cc(F)ccc23)CC1 [Compound 11025],Binding to HRas^G12V (in words),[1],low or no binding
same,19F T2-CPMG Score,[2],−2.12
same,19F DLB Score,[3],1
O=C(c1ccc(F)cc1F)N1CCC(c2c[nH]c3cc(F)ccc23)CC1 [Compound 11026],Binding to HRas^G12V (in words),[1],low or no binding
same,19F T2-CPMG Score,[2],−1.86
same,19F DLB Score,[3],2.02
CC1(C)OC(=O)C(C(c2ccccc2F)c2c[nH]c3cc(F)ccc23)C(=O)O1 (stereo not drawn) [Compound 11041],Binding to HRas^G12V (in words),[1],low or no binding
same,19F T2-CPMG Score,[2],3.61
same,19F DLB Score,[3],1.65
CC1(C)OC(=O)C(C(c2ccccc2F)c2c[nH]c3cc(F)ccc23)C(=O)O1 (stereo not drawn) [Compound 11042],Binding to HRas^G12V (in words),[1],low or no binding
same,19F T2-CPMG Score,[2],5.62
same,19F DLB Score,[3],1.56
O=C(O)CC(c1ccccc1F)c1c[nH]c2cc(F)ccc12 (stereo not drawn) [Compound 11043],Activity ranking on HRas^G12V (in words),[1],More active
same,19F T2-CPMG Score,[2],20.23
same,19F DLB Score,[3],3.27
CN(C)CC(=O)Nc1cccc(NC(=O)Cc2c[nH]c3cc(Cl)cc(F)c23)c1 [Compound 11072],Binding to HRas^G12V (in words),[1],low or no binding
same,19F T2-CPMG Score,[2],1.02
same,19F DLB Score,[3],0.08
CN(C)CC(=O)Nc1cccc(NC(=O)Cc2c[nH]c3cc(F)cc(Cl)c23)c1 [Compound 11073],Activity ranking on HRas^G12V (in words),[1],More active; also recorded: Most active
same,19F T2-CPMG Score,[2],<LLOQ
same,19F DLB Score,[3],<LLOQ
"CN(C)Cc1c[nH]c2ccc(F)cc12 [FS-1254, reference compound]",Binding to HRas^G12V (in words),[1],low or no binding
same,19F T2-CPMG Score,[2],0.74
same,19F DLB Score,[3],1.15
O=C(CN1CCCCC1)c1c[nH]c2cc(F)ccc12 [compound 10076],Activity ranking on HRas^G12V (in words),[1],More active
same,19F T2-CPMG Score,[2],37.86
same,19F DLB Score,[3],3.34
CC(=O)N1CC[C@H](NC(=O)Cc2c[nH]c3cc(F)ccc23)C1 [compound 10090],Binding to HRas^G12V (in words),[1],low or no binding
same,19F T2-CPMG Score,[2],6.28
same,19F DLB Score,[3],1.51
COCCOc1cccc(NC(=O)Cc2c[nH]c3cc(F)ccc23)c1 [compound 10094],Binding to HRas^G12V (in words),[1],low or no binding
same,19F T2-CPMG Score,[2],2.5
same,19F DLB Score,[3],3
CC(=O)N[C@@H]1CCCN(C(=O)Cc2c[nH]c3cc(F)ccc23)C1 [compound 10137],Binding to HRas^G12V (in words),[1],low or no binding
same,19F T2-CPMG Score,[2],6.16
same,19F DLB Score,[3],2.02
COC[C@@H]1CN(C(=O)Cc2c[nH]c3cc(F)ccc23)CCO1 [compound 10155],Binding to HRas^G12V (in words),[1],low or no binding
same,19F T2-CPMG Score,[2],8.16
same,19F DLB Score,[3],1.49
CC(=O)NC[C@@H]1CN(C(=O)Cc2c[nH]c3cc(F)ccc23)CCO1 [compound 10164],Binding to HRas^G12V (in words),[1],low or no binding
same,19F T2-CPMG Score,[2],5.59
same,19F DLB Score,[3],1.61
